Measurements from PubChem BioAssay AID330 (DTP/NCI, 2004).
Several values for one entry are separate records, joined by “and”; a condition that tells them apart may be missing. Equal entries are not always repeated. Toxic doses and inconclusive results are not listed. Rule for the calls: active = survival T/C of 150% or more; inactive = T/C below 125% in these data.

Test system: P388 leukemia ip, CD2F1 mice, survival T/C
Assay: NCI In Vivo Anticancer Drug Screen. Data for tumor model P388 Leukemia (intraperitoneal) in CD2F1 (CDF1) mice
Conditions: endpoint: median survival time, higher = longer survival
In short: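 Mice carrying the transplanted tumor received test compound or vehicle. Survival was recorded in each group, and the value is the treated-group measurement divided by that of the vehicle-treated control group.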

[1] = dose: 50.0 mg/kg/injection, schedule: Q01DX005 (ip), vehicle: saline with Tween-80
[2] = dose: 12.5 mg/kg/injection, schedule: Q01DX005 (ip), vehicle: Klucel (hydroxypropylcellulose) (HPC)
[3] = dose: 25.0 mg/kg/injection, schedule: Q01DX005 (ip), vehicle: Klucel (hydroxypropylcellulose) (HPC)
[4] = dose: 50.0 mg/kg/injection, schedule: Q01DX005 (ip), vehicle: Klucel (hydroxypropylcellulose) (HPC)
[5] = dose: 100.0 mg/kg/injection, schedule: Q01DX005 (ip), vehicle: Klucel (hydroxypropylcellulose) (HPC)
[6] = dose: 100.0 mg/kg/injection, schedule: Q01DX005 (ip), vehicle: saline with Tween-80
[7] = dose: 200.0 mg/kg/injection, schedule: Q01DX005 (ip), vehicle: saline with Tween-80
[8] = dose: 60.0 mg/kg/injection, schedule: Q01DX005 (ip), vehicle: Klucel (hydroxypropylcellulose) (HPC)
[9] = dose: 120.0 mg/kg/injection, schedule: Q01DX005 (ip), vehicle: Klucel (hydroxypropylcellulose) (HPC)
[10] = dose: 50.0 mg/kg/injection, schedule: Q01DX009 (ip), vehicle: saline

Measured: T/C

Cc1cc(=O)[nH]c(N/N=C/c2ccccc2O)n1
inactive: dose: 100.0 mg/kg/injection, schedule: Q01DX009 (ip), vehicle: saline with Tween-80 90 % of control | dose: 100.0 mg/kg/injection, schedule: Q04DX003 (ip), vehicle: saline with Tween-80 90 % of control | dose: 200.0 mg/kg/injection, schedule: Q01DX009 (ip), vehicle: saline with Tween-80 90 % of control | dose: 200.0 mg/kg/injection, schedule: Q04DX003 (ip), vehicle: saline with Tween-80 90 % of control | dose: 400.0 mg/kg/injection, schedule: Q01DX009 (ip), vehicle: saline with Tween-80 90 % of control | dose: 400.0 mg/kg/injection, schedule: Q04DX003 (ip), vehicle: saline with Tween-80 100 % of control

CCCCCCCCCCCC1N=C(N)N=C(N)N1c1cccc(Br)c1 (centres undefined)
inactive: dose: 12.5 mg/kg/injection, schedule: Q01DX005 (ip), vehicle: saline with Tween-80 100 % of control | dose: 25.0 mg/kg/injection, schedule: Q01DX005 (ip), vehicle: saline with Tween-80 112 % of control | [1] 97 % of control

Cc1nc2c(O)ccc(O)c2nc1C
inactive: dose: 3.75 mg/kg/injection, schedule: Q01DX009 (ip), vehicle: saline with Tween-80 99 % of control | dose: 3.75 mg/kg/injection, schedule: Q04DX003 (ip), vehicle: saline with Tween-80 100 % of control | dose: 7.5 mg/kg/injection, schedule: Q01DX009 (ip), vehicle: saline with Tween-80 94 % of control | dose: 7.5 mg/kg/injection, schedule: Q04DX003 (ip), vehicle: saline with Tween-80 99 % of control | dose: 15.0 mg/kg/injection, schedule: Q01DX009 (ip), vehicle: saline with Tween-80 88 % of control | dose: 15.0 mg/kg/injection, schedule: Q04DX003 (ip), vehicle: saline with Tween-80 106 % of control | dose: 30.0 mg/kg/injection, schedule: Q01DX009 (ip), vehicle: saline with Tween-80 95 % of control | dose: 30.0 mg/kg/injection, schedule: Q04DX003 (ip), vehicle: saline with Tween-80 109 % of control | dose: 60.0 mg/kg/injection, schedule: Q01DX009 (ip), vehicle: saline with Tween-80 110 % of control | dose: 60.0 mg/kg/injection, schedule: Q04DX003 (ip), vehicle: saline with Tween-80 109 % of control

CCOC(=C\C(=O)NC)/C=C/c1ccc([N+](=O)[O-])cc1
inactive: dose: 6.25 mg/kg/injection, schedule: Q01DX005 (ip), vehicle: Klucel (hydroxypropylcellulose) (HPC) 117 % of control | [2] 91 % of control | [3] 91 % of control | [4] 86 % of control | [5] 88 % of control

CCCCCCCCCCCC[N+]1(CC)CCCC1
inactive: dose: 1.56 mg/kg/injection, schedule: Q01DX009 (ip), vehicle: saline 100 % of control | dose: 3.12 mg/kg/injection, schedule: Q01DX009 (ip), vehicle: saline 98 % of control and 92 % of control | dose: 6.25 mg/kg/injection, schedule: Q01DX009 (ip), vehicle: saline 86 % of control

CC1(C)Cc2[nH]c3ccccc3c(=O)c2-c2nc3ccccc3c(=O)n21
inactive: [2] 98 % of control | [3] 88 % of control | [4] 90 % of control | [5] 98 % of control | dose: 200.0 mg/kg/injection, schedule: Q01DX005 (ip), vehicle: Klucel (hydroxypropylcellulose) (HPC) 116 % of control

CON1C(=O)OCC(c2ccccc2)(c2ccccc2)C1=O
inactive: [1] 99 % of control | [6] 104 % of control | [7] 91 % of control

CC(=O)C[n+]1ccccc1C
inactive: [1] 93 % of control | [6] 107 % of control

COc1ccc(C[n+]2cc([O-])on2)cc1
inactive: dose: 6.25 mg/kg/injection, schedule: Q01DX009 (ip), vehicle: saline with Tween-80 100 % of control | dose: 12.5 mg/kg/injection, schedule: Q01DX009 (ip), vehicle: saline with Tween-80 100 % of control | dose: 25.0 mg/kg/injection, schedule: Q01DX009 (ip), vehicle: saline with Tween-80 100 % of control and 104 % of control and 95 % of control | dose: 50.0 mg/kg/injection, schedule: Q01DX009 (ip), vehicle: saline with Tween-80 122 % of control | dose: 66.0 mg/kg/injection, schedule: Q01DX009 (ip), vehicle: saline with Tween-80 118 % of control and 122 % of control

CCOC(=O)c1ccc(NC(=O)Nc2ccc(NC(C)=O)cc2)cc1
inactive: dose: 15.0 mg/kg/injection, schedule: Q01DX005 (ip), vehicle: Klucel (hydroxypropylcellulose) (HPC) 95 % of control | dose: 30.0 mg/kg/injection, schedule: Q01DX005 (ip), vehicle: Klucel (hydroxypropylcellulose) (HPC) 96 % of control | [8] 87 % of control and 88 % of control and 93 % of control | [9] 87 % of control | dose: 240.0 mg/kg/injection, schedule: Q01DX005 (ip), vehicle: Klucel (hydroxypropylcellulose) (HPC) 87 % of control

CSCc1cc(C)ccc1NC(C)=O
inactive: dose: 50.0 mg/kg/injection, schedule: Q04DX002 (ip), vehicle: saline with Tween-80 98 % of control | dose: 100.0 mg/kg/injection, schedule: Q01DX001 (ip), vehicle: saline with Tween-80 99 % of control | dose: 100.0 mg/kg/injection, schedule: Q04DX002 (ip), vehicle: saline with Tween-80 98 % of control | dose: 200.0 mg/kg/injection, schedule: Q01DX001 (ip), vehicle: saline with Tween-80 99 % of control | dose: 200.0 mg/kg/injection, schedule: Q04DX002 (ip), vehicle: saline with Tween-80 102 % of control | dose: 400.0 mg/kg/injection, schedule: Q01DX001 (ip), vehicle: saline with Tween-80 100 % of control

O=C1CCC(CCl)(C(=O)O)O1 (centres undefined)
inactive: [10] 106 % of control | dose: 100.0 mg/kg/injection, schedule: Q01DX009 (ip), vehicle: saline 106 % of control | dose: 200.0 mg/kg/injection, schedule: Q01DX009 (ip), vehicle: saline 91 % of control

Cc1cc(CSC(=N)N)c(C)cc1CSC(=N)N
inactive: dose: 5.0 mg/kg/injection, schedule: Q01DX009 (ip), vehicle: saline with Tween-80 100 % of control | dose: 10.0 mg/kg/injection, schedule: Q01DX009 (ip), vehicle: saline with Tween-80 109 % of control | dose: 10.0 mg/kg/injection, schedule: Q04DX003 (ip), vehicle: saline with Tween-80 108 % of control | dose: 20.0 mg/kg/injection, schedule: Q01DX009 (ip), vehicle: saline with Tween-80 109 % of control | dose: 20.0 mg/kg/injection, schedule: Q04DX003 (ip), vehicle: saline with Tween-80 104 % of control | dose: 40.0 mg/kg/injection, schedule: Q04DX003 (ip), vehicle: saline with Tween-80 116 % of control

O=C1C[N+]2(Cc3ccccc3)CCC1CC2
inactive: dose: 12.5 mg/kg/injection, schedule: Q01DX009 (ip), vehicle: saline 101 % of control | dose: 25.0 mg/kg/injection, schedule: Q01DX009 (ip), vehicle: saline 108 % of control | [10] 90 % of control

CCCCCCCCCCCC(C)NCc1ccccc1 (centres undefined)
inactive: dose: 6.25 mg/kg/injection, schedule: Q01DX009 (ip), vehicle: Klucel (hydroxypropylcellulose) (HPC) 103 % of control | dose: 12.5 mg/kg/injection, schedule: Q01DX009 (ip), vehicle: Klucel (hydroxypropylcellulose) (HPC) 112 % of control | dose: 25.0 mg/kg/injection, schedule: Q01DX009 (ip), vehicle: Klucel (hydroxypropylcellulose) (HPC) 99 % of control | dose: 50.0 mg/kg/injection, schedule: Q01DX009 (ip), vehicle: Klucel (hydroxypropylcellulose) (HPC) 105 % of control

O=C(NC(=O)c1ccccc1F)Nc1ccc(C(O)(C(F)(F)F)C(F)(F)F)cc1
inactive: [1] 104 % of control | [6] 98 % of control | [7] 100 % of control

Cc1cccc(Nc2c(C(=O)O)cnc3cc4c(cc23)OCO4)c1
inactive: [8] 94 % of control | [9] 94 % of control
